Assay results from PubChem BioAssay AID328 (DTP/NCI, 2004).
Toxic doses and inconclusive results are not listed. Starred links: 1 amine or outer side, 2 acyl side, 3 side chain; linkers in the order of their positions; H or OH if unused. Positions of bridges follow the written chain, without caps; N, C: chain ends. Non-standard residues stand in square brackets, D forms with d. Residues, ends and D or L forms follow the SMILES beside them. Chains are numbered I, II in the order given. Actinocin(1to9) = Cc1c2oc3c(C)ccc(C(=O)[*:2])c3nc-2c(C(=O)[*:1])c(N)c1=O; NMeV = CN[CH](C(=O)O)C(C)C; Sar = CNCC(=O)O

System: BDF1 mice, P388 leukemia ip, median survival T/C
Experiment: NCI In Vivo Anticancer Drug Screen. Data for tumor model P388 Leukemia (intraperitoneal) in B6D2F1 (BDF1) mice
Conditions: endpoint: median survival time, higher = longer survival
In short: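 T/C = treated-group survival ÷ vehicle-control survival; tumour transplanted into mice before dosing.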

CCC(C)C1NC(=O)C(NC(=O)c2c3nc4c(C(=O)NC5C(=O)NC(C(C)CC)C(=O)N6CCCC6C(=O)N(C)CC(=O)N(C)C(C(C)C)C(=O)OC5C)ccc(C)c4oc-3c(C)c(=O)c2N)C(C)OC(=O)C(C(C)C)N(C)C(=O)CN(C)C(=O)C2CCCN2C1=O (stereo unspecified) (I: TIP[Sar][NMeV] / II: TIP[Sar][NMeV]; ester I:1-I:C, II:1-II:C; linker I:N-II:N via Actinocin(1to9); configuration not given here)
T/C (dose: 0.05 mg/kg/injection, schedule: Q01DX010 (ip), vehicle: saline): 245 % of control
T/C (dose: 0.1 mg/kg/injection, schedule: Q01DX010 (ip), vehicle: saline): 300 % of control
T/C (dose: 0.2 mg/kg/injection, schedule: Q01DX001 (ip), vehicle: water): 162 % of control
T/C (dose: 0.4 mg/kg/injection, schedule: Q01DX001 (ip), vehicle: water): 157 % of control
T/C (dose: 0.8 mg/kg/injection, schedule: Q01DX001 (ip), vehicle: water): 166 % of control
T/C (dose: 1.6 mg/kg/injection, schedule: Q01DX001 (ip), vehicle: water): 86 % of control
T/C (dose: 3.1 micrograms/kg/injection, schedule: Q01DX001 (ip), vehicle: saline): 113 % of control
T/C (dose: 3.1 micrograms/kg/injection, schedule: Q01DX010 (ip), vehicle: saline): 180 % of control
T/C (dose: 3.1 micrograms/kg/injection, schedule: Q04DX003 (ip), vehicle: saline): 109 % of control
T/C (dose: 6.2 micrograms/kg/injection, schedule: Q01DX010 (ip), vehicle: saline): 175 % of control
T/C (dose: 6.3 micrograms/kg/injection, schedule: Q01DX001 (ip), vehicle: saline): 118 % of control
T/C (dose: 6.3 micrograms/kg/injection, schedule: Q04DX003 (ip), vehicle: saline): 118 % of control
T/C (dose: 12.5 micrograms/kg/injection, schedule: Q01DX001 (ip), vehicle: saline): 122 % of control
T/C (dose: 12.5 micrograms/kg/injection, schedule: Q01DX009 (ip), vehicle: water): 170 % of control
T/C (dose: 12.5 micrograms/kg/injection, schedule: Q01DX010 (ip), vehicle: saline): 185 % of control
T/C (dose: 25.0 micrograms/kg/injection, schedule: Q01DX001 (ip), vehicle: saline): 122 % of control
T/C (dose: 25.0 micrograms/kg/injection, schedule: Q01DX009 (ip), vehicle: water): 189 % of control
T/C (dose: 25.0 micrograms/kg/injection, schedule: Q01DX010 (ip), vehicle: saline): 220 % of control
T/C (dose: 25.0 micrograms/kg/injection, schedule: Q04DX003 (ip), vehicle: saline): 150 % of control
T/C (dose: 50.0 micrograms/kg/injection, schedule: Q01DX009 (ip), vehicle: water): 200 % of control
T/C (dose: 50.0 micrograms/kg/injection, schedule: Q01DX010 (ip), vehicle: saline): 215 % of control
T/C (dose: 50.0 micrograms/kg/injection, schedule: Q04DX003 (ip), vehicle: saline): 181 % of control
T/C (dose: 75.0 micrograms/kg/injection, schedule: Q04DX003 (ip), vehicle: water): 162 % of control
T/C (dose: 100.0 micrograms/kg/injection, schedule: Q01DX009 (ip), vehicle: water): 206 % of control
T/C (dose: 100.0 micrograms/kg/injection, schedule: Q01DX010 (ip), vehicle: saline): 295 % of control
T/C (dose: 100.0 micrograms/kg/injection, schedule: Q04DX003 (ip), vehicle: saline): 190 % of control
T/C (dose: 150.0 micrograms/kg/injection, schedule: Q04DX003 (ip), vehicle: water): 172 % of control
T/C (dose: 200.0 micrograms/kg/injection, schedule: Q01DX001 (ip), vehicle: saline): 177 % of control
T/C (dose: 200.0 micrograms/kg/injection, schedule: Q01DX010 (ip), vehicle: saline): 110 % of control
T/C (dose: 200.0 micrograms/kg/injection, schedule: Q04DX003 (ip), vehicle: saline): 200 % of control
T/C (dose: 300.0 micrograms/kg/injection, schedule: Q04DX003 (ip), vehicle: water): 209 % of control
T/C (dose: 400.0 micrograms/kg/injection, schedule: Q01DX001 (ip), vehicle: saline): 190 % of control
T/C (dose: 400.0 micrograms/kg/injection, schedule: Q04DX003 (ip), vehicle: saline): 231 % of control
T/C (dose: 600.0 micrograms/kg/injection, schedule: Q04DX003 (ip), vehicle: water): 224 % of control

O=c1c(N=Nc2ccccc2)c[nH]n1-c1ccccc1
T/C (dose: 62.5 mg/kg/injection, schedule: Q01DX009 (ip), vehicle: saline with Tween-80): 90 % of control
T/C (dose: 250.0 mg/kg/injection, schedule: Q01DX009 (ip), vehicle: saline with Tween-80): 88 % of control
